Source: US20240343704A1, “HALO-SUBSTITUTED AMINO PYRIDINE COMPOUNDS AS INHIBITORS OF THE HAEMATOPOIETIC PROGENITOR KINASE 1 (HPK1)” (priority 2021, published 2024)

Key:
[1] = target: T1, Recombinant (1-346) HPK1 (h) (Homo sapiens, UniProt Q92918); assay: HPK1 Human STE Kinase Enzymatic Radiometric Assay; assay type: biochemical; details: read-out: HPK1 IC50 nM Range*
T1 construct: Recombinant (1-346) HPK1 (h) is incubated with 8 mM MOPS pH 7.0
T1 sequence (Q92918 1-346): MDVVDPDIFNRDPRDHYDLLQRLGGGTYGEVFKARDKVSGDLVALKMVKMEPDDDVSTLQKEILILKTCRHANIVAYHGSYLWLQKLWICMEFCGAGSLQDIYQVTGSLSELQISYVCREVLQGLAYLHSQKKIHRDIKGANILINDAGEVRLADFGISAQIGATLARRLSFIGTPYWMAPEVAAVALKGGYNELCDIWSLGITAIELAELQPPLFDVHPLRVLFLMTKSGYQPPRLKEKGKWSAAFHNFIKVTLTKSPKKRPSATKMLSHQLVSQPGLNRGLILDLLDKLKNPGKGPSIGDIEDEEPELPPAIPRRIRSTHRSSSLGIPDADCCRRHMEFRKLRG
Experimental: A stock solution of 10 mM of test compound is prepared in DMSO. The compound plate was prepared by 3-fold and 9-point serial dilutions. […] The reaction is initiated by The addition of the Mg/ATP mix. After incubation for 40 minutes at RT, the reaction is stopped by the addition of phosphoric acid to a concentration of 0.5%.

Lck (h) = Lck (h) (Homo sapiens, UniProt P06239); assay: Lck Human  Kinase Enzymatic Radiometric Assay; assay type: biochemical; details: read-out: Lck IC50 nM Range*
Method in brief: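 Substrate 33P-incorporation measured by scintillation counting after spotting on P30 filtermat and phosphoric acid washes. Human Lck reacted 40 min at RT in 50 mM Tris pH 7.5 with 10 mM MgAcetate, [gamma-33P]-ATP, 250 uM Cdc2 peptide, 0.1 mM EGTA and 0.1 mM Na3VO4.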

Chain of Lck (h) (P06239 whole entry): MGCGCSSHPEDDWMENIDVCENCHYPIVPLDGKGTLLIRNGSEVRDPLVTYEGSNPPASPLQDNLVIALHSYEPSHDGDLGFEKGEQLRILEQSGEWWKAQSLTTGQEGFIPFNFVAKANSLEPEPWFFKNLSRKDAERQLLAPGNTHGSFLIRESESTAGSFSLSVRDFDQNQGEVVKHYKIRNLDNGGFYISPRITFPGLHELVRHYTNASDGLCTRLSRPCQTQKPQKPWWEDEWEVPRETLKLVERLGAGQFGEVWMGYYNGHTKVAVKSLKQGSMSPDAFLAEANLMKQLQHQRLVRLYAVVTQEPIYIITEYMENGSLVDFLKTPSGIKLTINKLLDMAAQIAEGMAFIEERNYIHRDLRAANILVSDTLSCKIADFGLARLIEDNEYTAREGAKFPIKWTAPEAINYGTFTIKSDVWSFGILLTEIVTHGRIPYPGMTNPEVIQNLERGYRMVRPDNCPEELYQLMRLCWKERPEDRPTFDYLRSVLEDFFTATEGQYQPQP

IC50 [1] [nM]	IC50 (Lck (h)) [nM]	SMILES
0.1 to 10	> 1000	CN(C)Cc1cc(-c2cc(-c3ccc4c(c3)CCNC4=O)c(N)nc2F)ccc1N1CCOCC1 [I-432, 6-(2-amino-5-(3-((dimethylamino)methyl)-4-morpholinophenyl)-6-fluoropyridin-3-yl)-3,4-dihydroisoquinolin-1(2H)-one]
0.1 to 10	> 1000	Cc1cc(-c2cc(-c3ccc4c(c3)CCNC4=O)c(N)nc2F)cc2c1CCN(C)C2 [I-434, 6-(2-amino-5-(2,5-dimethyl-1,2,3,4-tetrahydroisoquinolin-7-yl)-6-fluoropyridin-3-yl)-3,4-dihydroisoquinolin-1(2H)-one]
101 to 1000	> 1000	CC(C)N1CCN(c2ccc(-c3cc(-c4ccc5c(=O)[nH]c(C(F)(F)F)nc5c4)c(N)nc3F)cc2)CC1 [I-435, 7-(2-amino-6-fluoro-5-(4-(4-isopropylpiperazin-1-yl)phenyl)pyridin-3-yl)-2-(trifluoromethyl)quinazolin-4(3H)-one]
0.1 to 10	> 1000	CN(C)Cc1cc(-c2cc(-c3cc(F)c4c(c3)CCNC4=O)c(N)nc2F)ccc1C1CCOCC1 [I-436, 6-(2-amino-5-(3-((dimethylamino)methyl)-4-(tetrahydro-2H-pyran-4-yl)phenyl)-6-fluoropyridin-3-yl)-8-fluoro-3,4-dihydroisoquinolin-1(2H)-one]
11 to 100	> 1000	Cc1nc2cc(-c3cc(-c4ccc(C5CCOCC5)c(CN(C)C)c4)c(F)nc3N)ccc2c(=O)[nH]1 [I-437, 7-(2-amino-5-(3-((dimethylamino)methyl)-4-(tetrahydro-2H-pyran-4-yl)phenyl)-6-fluoropyridin-3-yl)-2-methylquinazolin-4(3H)-one]
11 to 100	> 1000	Cc1nc2cc(-c3cc(-c4ccc(N5CCN(C(C)C)CC5)cc4)c(F)nc3N)c(F)cc2c(=O)[nH]1 [I-439, 7-(2-amino-6-fluoro-5-(4-(4-isopropylpiperazin-1-yl)phenyl)pyridin-3-yl)-6-fluoro-2-methylquinazolin-4(3H)-one]
0.1 to 10	> 1000	Nc1nc(F)c(-c2ccc(N3CCN(CCCC(F)F)CC3)cc2)cc1-c1cc(F)c2c(c1)CCNC2=O [I-440, 6-(2-amino-5-(4-(4-(4,4-difluorobutyl)piperazin-1-yl)phenyl)-6-fluoropyridin-3-yl)-8-fluoro-3,4-dihydroisoquinolin-1(2H)-one]
0.1 to 10	> 1000	CN(C)Cc1cc(-c2cc(-c3ccc4c(c3)CCNC4=O)c(N)nc2F)ccc1N1CCN(CCCC(F)F)CC1 [I-445, 6-(2-amino-5-(4-(4-(4,4-difluorobutyl)piperazin-1-yl)-3-((dimethylamino)methyl)phenyl)-6-fluoropyridin-3-yl)-3,4-dihydroisoquinolin-1(2H)-one]
0.1 to 10	> 1000	Cc1cc(-c2cc(-c3ccc4c(c3)CCNC4=O)c(N)nc2F)cc2c1CCN(CCCC(F)F)C2 [I-446, 6-(2-amino-5-(2-(4,4-difluorobutyl)-5-methyl-1,2,3,4-tetrahydroisoquinolin-7-yl)-6-fluoropyridin-3-yl)-3,4-dihydroisoquinolin-1(2H)-one]
0.1 to 10	> 1000	Nc1nc(F)c(-c2ccc(N3CCC4(CC3)CN(C3CCC3)C4)cc2)cc1-c1cc2c(cc1F)C(=O)NCC2 [I-449, 6-(2-amino-5-(4-(2-cyclobutyl-2,7-diazaspiro[3.5]nonan-7-yl)phenyl)-6-fluoropyridin-3-yl)-7-fluoro-3,4-dihydroisoquinolin-1(2H)-one]
0.1 to 10	> 1000	CN(C)Cc1cc(-c2cc(-c3ccc4c(c3)CCNC4=O)c(N)nc2F)ccc1N1CCN(C2CCCC2)CC1 [I-451, 6-(2-amino-5-(4-(4-cyclopentylpiperazin-1-yl)-3-((dimethylamino)methyl)phenyl)-6-fluoropyridin-3-yl)-3,4-dihydroisoquinolin-1(2H)-one]
0.1 to 10	> 1000	Cc1cc2cc(-c3cc(-c4ccc(N5CCN(CC6CC6)CC5)cc4)c(F)nc3N)cc(F)c2c(=O)[nH]1 [I-454, 6-(2-amino-5-(4-(4-(cyclopropylmethyl)piperazin-1-yl)phenyl)-6-fluoropyridin-3-yl)-8-fluoro-3-methylisoquinolin-1(2H)-one]
0.1 to 10	> 1000	Nc1nc(F)c(-c2ccc(N3CCN(CC4CC4)CC3)cc2)cc1-c1ccc2c(=O)[nH]cc(F)c2c1 [I-455, 6-(2-amino-5-(4-(4-(cyclopropylmethyl)piperazin-1-yl)phenyl)-6-fluoropyridin-3-yl)-4-fluoroisoquinolin-1(2H)-one]
0.1 to 10	> 1000	Cc1c[nH]c(=O)c2ccc(-c3cc(-c4ccc(N5CCN(CC6CC6)CC5)cc4)c(F)nc3N)cc12 [I-457, 6-(2-amino-5-(4-(4-(cyclopropylmethyl)piperazin-1-yl)phenyl)-6-fluoropyridin-3-yl)-4-methylisoquinolin-1(2H)-one]
0.1 to 10	> 1000	Cc1[nH]c(=O)c2c(F)cc(-c3cc(-c4ccc(N5CCN(C(C)C)CC5)cc4)c(F)nc3N)cc2c1F [I-481, 6-(2-amino-6-fluoro-5-(4-(4-isopropylpiperazin-1-yl)phenyl)pyridin-3-yl)-4,8-difluoro-3-methylisoquinolin-1(2H)-one]
0.1 to 10	> 1000	CN(C)Cc1cc(-c2cc(-c3ccc4c(=O)[nH]cc(F)c4c3)c(N)nc2F)ccc1C1CCOCC1 [I-503, 6-(2-amino-5-(3-((dimethylamino)methyl)-4-(tetrahydro-2H-pyran-4-yl)phenyl)-6-fluoropyridin-3-yl)-4-fluoroisoquinolin-1(2H)-one]
0.1 to 10	11 to 100	COC1CCN(Cc2cc(-c3cc(-c4cc5c(cc4F)C(=O)NCC5)c(N)nc3F)ccc2N2CCOCC2)C1 (centres unmarked) [I-543, 6-(2-amino-6-fluoro-5-(3-((3-methoxypyrrolidin-1-yl)methyl)-4-morpholinophenyl)pyridin-3-yl)-7-fluoro-3,4-dihydroisoquinolin-1(2H)-one]
0.1 to 10	> 1000	Nc1nc(F)c(-c2ccc(N3CCN(CC4CC4)CC3)cc2)cc1-c1cc2c(F)c[nH]c(=O)c2cc1F [I-548, 6-(2-amino-5-(4-(4-(cyclopropylmethyl)piperazin-1-yl)phenyl)-6-fluoropyridin-3-yl)-4,7-difluoroisoquinolin-1(2H)-one]
0.1 to 10	> 1000	CN(C)Cc1nc(-c2cc(-c3ccc4c(c3)CCNC4=O)c(N)nc2F)ccc1N1CCOCC1 [I-551, 6-(6′-amino-6-((dimethylamino)methyl)-2′-fluoro-5-morpholino-[2,3′-bipyridin]-5′-yl)-3,4-dihydroisoquinolin-1(2H)-one]
0.1 to 10	> 1000	CCN(C)Cc1nc(-c2cc(-c3ccc4c(c3)CCNC4=O)c(N)nc2F)ccc1N1CCOCC1 [I-580, 6-(6′-amino-6-((ethyl(methyl)amino)methyl)-2′-fluoro-5-morpholino-[2,3′-bipyridin]-5′-yl)-3,4-dihydroisoquinolin-1(2H)-one]
0.1 to 10	> 1000	CC(=O)N1CCN(c2ccc(-c3cc(-c4ccc5c(c4)CCNC5=O)c(N)nc3F)nc2)CC1 [I-591, 6-(5-(4-acetylpiperazin-1-yl)-6′-amino-2′-fluoro-[2,3′-bipyridin]-5′-yl)-3,4-dihydroisoquinolin-1(2H)-one]

SMILES	IC50 [1] [nM]	IC50 (Lck (h)) [nM]
Nc1nc(F)c(-c2ccc(N3CCOCC3)c(CN3CCC3)c2F)cc1-c1ccc2c(c1)CCNC2=O [I-609, 6-(2-amino-5-(3-(azetidin-1-ylmethyl)-2-fluoro-4-morpholinophenyl)-6-fluoropyridin-3-yl)-3,4-dihydroisoquinolin-1(2H)-one]	11 to 100	> 1000
